The target of this assay is T1, porcine pancreatic α-amylase (PPA) (Sus scrofa, UniProt P00690).
T1 construct: purchased Sigma Aldrich A4268
T1 sequence (P00690 16-511): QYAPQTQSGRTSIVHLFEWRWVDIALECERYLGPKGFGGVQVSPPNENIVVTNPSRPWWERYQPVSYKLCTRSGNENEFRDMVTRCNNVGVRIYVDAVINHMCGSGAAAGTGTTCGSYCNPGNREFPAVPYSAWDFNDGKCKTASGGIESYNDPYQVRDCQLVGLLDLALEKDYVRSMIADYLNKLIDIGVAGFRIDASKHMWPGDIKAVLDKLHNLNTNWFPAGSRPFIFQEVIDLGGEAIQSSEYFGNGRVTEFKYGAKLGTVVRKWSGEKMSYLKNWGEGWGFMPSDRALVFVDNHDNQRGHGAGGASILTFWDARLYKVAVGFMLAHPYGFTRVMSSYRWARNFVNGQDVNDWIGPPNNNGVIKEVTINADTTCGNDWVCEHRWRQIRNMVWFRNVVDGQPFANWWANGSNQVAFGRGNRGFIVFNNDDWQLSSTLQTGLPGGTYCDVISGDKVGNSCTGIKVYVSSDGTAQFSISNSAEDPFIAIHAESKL
Kind of assay: Determination of Ki against porcine pancreatic α-amylase (Morrison). The class given is biochemical. The conditions noted are these: 37 °C, 50 mM sodium phosphate, 100 mM NaCl, pH 7.0; CNPG3 1 mM (KM 0.71 mM), nominal [E] 20 nM; 10 min pre-incubation; 405 nm; Morrison fit, competitive mode assumed; mean ± SE (n = 3). As for the experimental part: For a quantitative assessment of tight-binding inhibitor potency, Morrison’s method was applied. This method uses the Morrison quadratic equation (Equation (1)) for fitting inhibitor-response data and determining Ki app as a nonlinear regression parameter. (1) υ/υo=1−([E]+[I]+Kiapp)−([E]+[I]+Kiapp)^2−4[E][I]/2[E]o
Kinetic assays were carried out at 37 °C in 50 mM sodium phosphate and 100 mM sodium chloride (pH 7.0). 2-Chloro-4-nitrophenyl-α-maltotrioside (CNPG3) (Sigma Aldrich, St. Louis, MO, USA) was used as the substrate and the optical absorption of the 2-chloro-4-nitrophenol was measured at 405 nm. Reactions were run with final [CNPG3] = 1 mM ([S]/KM = 1.41, KM = 0.71 mM), nominal [E] = 20 nM for PPA, [CNPG3] = 3.3 mM ([S]/KM = 0.97, KM = 3.4 mM), and nominal [E] = 100 nM for HSA to provide sufficient analytical signal. Inhibitor dilution schemes were optimized considering recommendations in [34].
The enzyme was pre-incubated with the inhibitor for 10 minutes before the addition of substrate which launched the reaction. Reactions were monitored on an xMark microplate spectrophotometer (BioRad, USA) in the kinetic mode for 30 min. The initial linear steady state region provided initial rate values for each inhibitor concentration (υ), along with uninhibited rate values (υo). Measurements were run in triplicate. […]

Bridge positions count the residues as written; N and C are the ends. Ends that are not written are not given here.

The Ki is the dissociation constant of the complex between target and ligand, obtained from inhibition or displacement. A high value points to lower affinity.

“SEGTSCYIYHGVYGICKAKCAEDMKAMAGMGVCEGDLCCYKTPW (disulfide 6-38, 16-33, 20-39) [r-magnificamide]” displayed a Ki of 0.17 ± 0.06 nM.

The values are drawn from article PMC6835510, “Magnificamide, a β-Defensin-Like Peptide from the Mucus of the Sea Anemone Heteractis magnifica, Is a Strong Inhibitor of Mammalian α-Amylases” (Marine Drugs, 2019).
